Test results from US4264497A, “1,5-Benzothiazepine compounds” (Maruko Seiyaku Co., Ltd., priority 1978, dated 1981).
Structures can show the parent of a compound that is named as a salt.

Legend:
[1] = tested on: Stress induced ulcer; experiment: Anti-ulcer activity, stress induced ulcer, mice; assay type: in vivo; conditions: p.o., 5 mg/kg
[2] = tested on: Aspirin induced ulcer; experiment: Anti-ulcer activity, aspirin induced ulcer, rats; assay type: in vivo; conditions: s.c., 5 mg/kg
[3] = tested on: Indomethacin induced ulcer; experiment: Anti-ulcer activity, indomethacin induced ulcer, rats; assay type: in vivo; conditions: p.o.
[4] = tested on: Aspirin-Stress induced ulcer; experiment: Anti-ulcer activity, aspirin-stress induced ulcer, mice; assay type: in vivo; conditions: s.c., 5 mg/kg
[5] = tested on: Pylorus Ligature induced ulcer; experiment: Anti-ulcer activity, pylorus ligature ulcer, rats; assay type: in vivo; conditions: s.c., 20 mg/kg
[6] = tested on: Gastric secretion; experiment: Gastric secretion inhibitory activity, observed in the anti-ulcer test using aspirin; assay type: in vivo; conditions: observed simultaneously in anti-ulcer test using aspirin (rats, s.c., 5 mg/kg)
[7] = tested on: Corediastasis; experiment: Corediastasis (side effect), intraperitoneal; assay type: in vivo
[8] = tested on: ulcer; experiment: Anti-ulcer activity, overall statement; assay type: in vivo; conditions: in words, vs Glycopyrrolate
[9] = tested on: mice; experiment: Acute toxicity, overall comparison; assay type: in vivo; conditions: in words, vs Glycopyrrolate
[10] = tested on: mice; experiment: Acute toxicity LD50, oral, in mice; conditions: oral
[11] = tested on: mice; experiment: Acute toxicity LD50, intravenous, in mice; conditions: intravenous
[12] = tested on: Stress ulcer; experiment: Anti-ulcer activity (Stress), relative to racemate; assay type: in vivo; conditions: for Anti-ulcer Activity (Stress): relative, racemic mixture = 1
[13] = tested on: Desalivation; experiment: Desalivation activity (side effect), relative to racemate; assay type: in vivo; conditions: for Desalivation Activity: relative, racemic mixture = 1, side effect
[14] = Acute toxicity LD50, oral, in mice; conditions: mouse, in vivo, po
[15] = Acute toxicity LD50, intravenous, in mice; conditions: mouse, in vivo, iv
[16] = tested on: Anticholinergic activity; experiment: Anticholinergic activity (relative to racemate); assay type: in vivo

SMILES	Anti-ulcer Activity, % Inhibitory [1]	Anti-ulcer Activity, % Inhibitory [2]	Anti-ulcer Activity, % Inhibitory [4]	Anti-ulcer Activity, % Inhibitory [5]	Gastric secretion inhibitory activity, % Inhibitory [6]	corediastasis ED20 ([7]; in vivo, ip)	Anti-ulcer Activity (Stress) [12]	Desalivation Activity [13]	LD50 [14]	LD50 [15]	further results
CN1CCN(C[C@H]2C(=O)Nc3ccccc3S[C@H]2c2ccccc2)CC1 (relative stereo) [Compound A]	91.6%	100.0%	51.8%	100.0%	90%	0.31 mg/kg	–	–	–	–	Anti-ulcer Activity, % Inhibitory ([3]; A: 5 mg/kg): 99.0%; anti-ulcer activity compared with Glycopyrrolate [8]: equal or higher anti-ulcer activity; degree of acute toxicity compared with Glycopyrrolate [9]: approximately the same degree of acute toxicity as Glycopyrrolate; LD50 (in mice), Oral ([10]; mice, test compounds A-C): 650 mg/kg; LD50 (in mice), Intravenous ([11]; mice, test compounds A-C): 65 mg/kg
CN1CCN(C[C@H]2C(=O)Nc3ccccc3S[C@H]2c2ccccc2)CC1 (relative stereo) [Racemic Mixture, (±)-cis-2,3-dihydro-3-[(4-methylpiperazinyl)methyl]-2-phenyl-1,5-benzothiazepin-4(5H)-one]	–	–	–	–	–	–	1	1	650 mg/kg	65 mg/kg	–
CN1CCN(C[C@H]2C(=O)Nc3ccccc3S[C@H]2c2ccccc2)CC1 (single isomer, unassigned) [(-) Form, cis-(-)-2,3-dihydro-3-[(4-methylpiperazinyl)methyl]-2-phenyl-1,5-benzothiazepin-4(5H)-one]	–	–	–	–	–	–	4	0.6	870 mg/kg	160 mg/kg	anticholinergic activity relative to the corresponding racemate ([16]; (-) form vs racemate): 2 times; Anticholinergic Activity ([16]; relative, racemic mixture = 1): 2; anti-ulcer activity relative to the corresponding racemate ([12]; (-) form vs racemate): 4 times; desalivation activity as a side-effect, degree relative to racemate ([13]; (-) form vs racemate): about 1/2; acute toxicity by oral administration, degree relative to racemate ([10]; (-) form vs racemate): 3/4; acute toxicity by intravenous administration, degree relative to racemate ([11]; (-) form vs racemate): 2/5
C[N+]1(C)CCC(OC(=O)C(O)(c2ccccc2)C2CCCC2)C1 (centres unmarked) [Compound B, Glycopyrrolate]	81.9%	100.0%	47.6%	100.0%	90%	0.037 mg/kg	–	–	–	–	Anti-ulcer Activity, % Inhibitory ([3]; B: 20 mg/kg): 88.6%
CN1[C@@H]2CC[C@H]1CC(OC(=O)C(CO)c1ccccc1)C2 (some centres unmarked) [Compound C, Atropin Sulfate]	82.3%	79.3%	48.0%	13.0%	70%	–	–	–	–	–	corediastasis ED20 ([7]; intraperitoneal administration): 0.076 mg/kg
